Read-outs that look alike come from different tables or passages of the source.
Assays:
EstSP1 [1] = assay: p-nitrophenol release at […] nm, Lineweaver-Burk; assay type: biochemical, Sphingomonas sp. PAMC 26605; conditions: 40 °C; 0.1-0.5 mM substrate; 3 min; Table 3 and text print 92.5
EstSP1 [2] = conditions: 40 °C; 0.1-0.5 mM substrate; 3 min; text prints 247

CCCC(=O)Oc1ccc([N+](=O)[O-])cc1 [p-nitrophenyl butyrate]
Km (EstSP1 [1]): 92 ± 1.2 µM
Km (EstSP1 [2]): 249 ± 7.8 µM
